In general, IC50 refers to the point on the concentration scale where inhibition reaches its midpoint.

Structures are written as SMILES. “Also recorded” adds a separate entry of the source.

One test addresses T1, FKBP12 (Homo sapiens, UniProt P62942).
T1 construct: endogenous in cells; host or cells: RPMI 8226 (ATCC)
The test can be described thus: Suppression of rapamycin inhibition of S6 phosphorylation by competing for FKBP12. Type of test: cell-based. Conditions: RPMI 8226, 24 hours; FK506 10 μM, compound 3 and B1 0.2 μM, with rapamycin. The method, then: (§1) Human multiple myeloma RPMI 8226 cells were purchased from American Type Culture Collection (ATCC; Manassas, Va.) and cultured according to ATCC specifications. […] The content of live cells was determined by excluding the Trypan Blue-stained cells. The cells were counted with TC20 Automated Cell Counter (Bio-Rad Laboratories, Hercules, Calif.) and EC50 was calculated with Origin Pro 2017 (OriginLab Corporation, Northampton, Mass.). When indicated, the cells were harvested, washed twice in PBS, resuspended in dilution buffer and stored in −80° C. To prepare crude lysates the thawed preparations were vortexed with glass beads and centrifuged for 5 min 5,000×g (4° C.). The supernate was centrifuged for 20 min 14,000×g. The resulting supernate was used as “crude lysate.” SDS-PAGE was carried in 12% acrylamide, Tris-glycine gels from Invitrogen. Chameleon Duo (Li-Cor) and Rainbow RPN800E (GE Healthcare) molecular weight standards were separated on each gel alongside lysates. The proteins were transferred to nitrocellulose membrane in a semi-dry system. The membranes were probed with specific primary antibodies from Life Technologies (S6, PS6) and Li-Cor (COX IV), and then with secondary antibodies from Li-Cor. In each experiment visualization of S6, PS6 and COX IV was performed on the same membrane with Odyssey Infrared Imaging System (Li-Cor). […]

The target of another test is T2, 26 S proteasome (Homo sapiens, UniProt P25787+P25789).
T2 construct: purified from erythrocytes; purchased Enzo Life Sciences, Inc. (Farmingdale, N.Y.); host or cells: human erythrocytes
The test can be described thus: 26 S proteasome challenged with mixture of three substrates (surrogate proteinase assay). Type of test: biochemical. Conditions: mixture of ChT-L, T-L and Casp-L substrates, 33.3 μM each; read-out: IC50, 26 S proteasome with substrates for all three peptidases. The method, then: (§2) Human housekeeping 20 S and 26 S and complexes purified from erythrocytes were purchased from Enzo Life Sciences, Inc. (Farmingdale, N.Y.). The 1 mg/ml stock 20 S proteasome was diluted to 0.2 mg/ml working solution in 50 mM Tris/HCl, pH 8 containing 20% glycerol (dilution buffer). For the 26 S proteasome stock, the dilution buffer was supplemented with 2 mM ATP, 1 mM MgCl2, and 1 mM DTT (dithiothreitol). The ChT-L peptidase activity was measured as arbitrary intensity units of fluorescence emitted by 7-amino-4-methylcoumarin (AMC) released from the canonical model peptide substrate succinyl-LeuLeuValTyr-methylcoumarin (SucLLVY-MCA; Bachem Bioscience Inc., Philadelphia, Pa.), used at concentration of 100 μM. Free AMC (Sigma-Aldrich, St. Louis, Mo.) was used as the standard. The Rpt5 C-terminal peptide was synthesized (standard solid-phase peptide chemistry) and purified to at least 98% purity by GenScript (Piscataway, N.J.). The Rpt5 peptide and the peptide substrate were dissolved in dimethylsulfoxide (DMSO) and such stock solutions were stored at −20° C. The total concentration of DMSO in final reaction mixtures never exceeded 3% (vol/vol).
The reaction was carried out in 96-well plates, in 100 μL of reaction mixture, for 1 hour at 37° C. In the case of 20 S proteasome, the reaction mixture consisted of 45 mM Tris/HCl, pH 8, 100 mM KCl with premixed 10 μM Rpt5 peptide and 100 μM Suc-LLVY-MCA, to which 200 ng (nearly […]) of proteasome and desired concentration of tested compounds in 1 μL of DMSO were added. […] The reaction rates were calculated from a linear segment of kinetic curves constructed from measurements in 1-minutes intervals (Fluoroskan Ascent plate reader; Thermo Fisher Scientific Inc., Waltham, Mass.). Reaction rates were calculated using a linear fit executed by Slope Analyzer and Enzyme Kinetics applications launched within Origin Pro 2017 (OriginLab). […]

Test [1] concerns Human multiple myeloma RPMI 8226 cells. Description: Proliferation of RPMI 8226 cells, live cell count by Trypan Blue exclusion. Conditions: RPMI 8226, 0.2 μM, 24 hours, read-out: cell proliferation, % of control. It is filed as cell-based. The method, then:
Human multiple myeloma RPMI 8226 cells were purchased from American Type Culture Collection (ATCC; Manassas, Va.) and cultured according to ATCC specifications. […] The content of live cells was determined by excluding the Trypan Blue-stained cells. The cells were counted with TC20 Automated Cell Counter (Bio-Rad Laboratories, Hercules, Calif.) and EC50 was calculated with Origin Pro 2017 (OriginLab Corporation, Northampton, Mass.). When indicated, the cells were harvested, washed twice in PBS, resuspended in dilution buffer and stored in −80° C. To prepare crude lysates the thawed preparations were vortexed with glass beads and centrifuged for 5 min 5,000×g (4° C.). The supernate was centrifuged for 20 min 14,000×g. The resulting supernate was used as “crude lysate.” SDS-PAGE was carried in 12% acrylamide, Tris-glycine gels from Invitrogen. Chameleon Duo (Li-Cor) and Rainbow RPN800E (GE Healthcare) molecular weight standards were separated on each gel alongside lysates. The proteins were transferred to nitrocellulose membrane in a semi-dry system. The membranes were probed with specific primary antibodies from Life Technologies (S6, PS6) and Li-Cor (COX IV), and then with secondary antibodies from Li-Cor. In each experiment visualization of S6, PS6 and COX IV was performed on the same membrane with Odyssey Infrared Imaging System (Li-Cor).
The effects of compound 3 observed in vitro prompted its influence on the proliferation of cultured cancer cells to be tested, namely the multiple myeloma RPMI 8226 line. […] Such relatively low EC50, as compared to in vitro determined IC50 values for peptidase activities (2-3 μM; FIG. 3A and FIG. 3B) should come to no surprise. […] The in vitro readout of single peptidase activities is a useful and convenient measure of the catalytic prowess of proteasome. However, especially in the case of allosteric regulators, it may not fully reflect the important structural and functional effects.
Referring to FIG. […] The data are averages (±SD) of three-to-five independent experiments. […]

Test [2] deals with T3, 20 S human housekeeping proteasome (Homo sapiens, UniProt P25787+P25789).
T3 construct: purified from erythrocytes; purchased Enzo Life Sciences, Inc. (Farmingdale, N.Y.); host or cells: human erythrocytes
The test can be described thus: ChT-L peptidase activity of 20 S proteasome activated with Rpt5 peptide. Type of test: biochemical. Conditions: ChT-L, Suc-LLVY-AMC substrate, 20 S activated with Rpt5 peptide; read-out: IC50. Here is the method:
as §2
The reaction was carried out in 96-well plates, in 100 μL of reaction mixture, for 1 hour at 37° C. In the case of 20 S proteasome, the reaction mixture consisted of 45 mM Tris/HCl, pH 8, 100 mM KCl with premixed 10 μM Rpt5 peptide and 100 μM Suc-LLVY-MCA, to which 200 ng (nearly […]) of proteasome and desired concentration of tested compounds in 1 μL of DMSO were added. To test the activity of 26 S proteasome under conditions challenging coordination of the three pairs of peptidase active centers, a mixture of three canonical substrates specific for the ChT-L (SucLLVY-MCA), trypsin-like (T-L; BocLRR-MCA) and caspase-like (Casp-L; Z-LLE-MCA) was used with each of the substrates at 33.3 μM (100 μM of the total substrate concentration). The reaction mixture in this case consisted of 50 mM Tris/HCl, pH 8, 20 mM NaCl, premixed with the substrates and 2 mM ATP, to which 200 ng (nearly 0.1 nmol) of the 26 S working solution and desired concentration of tested compounds in 0.5 μL of DMSO were added. The reaction rates were calculated from a linear segment of kinetic curves constructed from measurements in 1-minutes intervals (Fluoroskan Ascent plate reader; Thermo Fisher Scientific Inc., Waltham, Mass.). Reaction rates were calculated using a linear fit executed by Slope Analyzer and Enzyme Kinetics applications launched within Origin Pro 2017 (OriginLab). Specific activity of the control 20 S proteasome activated with the Rpt5 peptide was in the range of 1.4 to 2.3 nanomoles of AMC product released by 1 mg of 20 S per second (1.95±0.24; n=18). Specific activity of the control 26 S proteasome challenged with three substrates reached on average 0.28±0.06 nanomoles of AMC product released by 1 mg of the enzyme per second (n=6). For comparison, degradation of the canonical Suc-LLVY-MCA substrate by the control 26 S proteasome preceded with a rate in the range of 0.6-0.8 nanomoles of AMC released per mg of the enzyme per second. The data are presented as mean±SD or as a representative set from at least 3 independent experiments.
The compounds were evaluated using the 20 S human housekeeping proteasome. It was activated with the Rpt5 derived 10-residue peptide that contains the C-terminal HbYX (hydrophobic-Tyr-any AA) motif activating the proteasome in trans and to some extend mimic the activation by the 19 S regulatory particle (Osmulski and Gaczynska (2013) Molecular pharmacology 84: 104-113; Smith et al. (2006) J. Struct. Biol. 156: 72-83; Smith et al. (2007) Mol. Cell 27: 731-744). Proteolytic activity was monitored over time using a fluorogenic peptide substrate specific for the chymotrypsin-like active center (ChT-L, Suc-LLVY-AMC) in the presence of a concentration range of the inhibitors. […]

A further test addresses T4, mTOR (Homo sapiens, UniProt P42345+P62942).
T4 construct: endogenous in cells; host or cells: RPMI 8226 (ATCC)
Description: Western blot of S6 phosphorylation in RPMI 8226 cells. It is filed as cell-based. Conditions: RPMI 8226, 24 hours; rapamycin 2 nM, compound 3 and B1 0.2 μM. Here is the method:
as §1
Background: In western blotting, separated proteins are transferred to a membrane and probed.

The target of test [3] is T5, native human 20 S core proteasome (Homo sapiens, UniProt P25787+P25789).
T5 construct: purified from erythrocytes; purchased Enzo Life Sciences, Inc. (Farmingdale, N.Y.); host or cells: human erythrocytes
The note with it: literature; cited from earlier work.

T1 sequence (P62942 whole entry): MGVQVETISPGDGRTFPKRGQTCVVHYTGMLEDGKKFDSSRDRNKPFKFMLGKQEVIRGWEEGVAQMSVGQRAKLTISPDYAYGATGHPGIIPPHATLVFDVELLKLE

As for `COc1cc(CCCOC(=O)[C@@H]2CCCCN2C(=O)C(=O)C2CCCCC2)cc(OC)c1OC` (racemic) [Compound B1], the “suppression of rapamycin inhibition of S6 phosphorylation (FKBP12 binding)” value at FKBP12 was “did not mimic the actions of FK506”. Besides, the IC50 on 26 S proteasome was 4.6 µM; in test [2], 5.8 µM. Further, in test [1], the activity at 0.2 µM is 60 to 65%. Besides, the “activity of mTOR (phosphorylation of S6)” value on mTOR is on record as “neither B1 nor compound 3 affected the activity of mTOR; also recorded: did not inhibit the S6 phosphorylation”.

Regarding `CCOC(=O)[C@]1(c2ccccc2)N=C(c2ccc(OC)cc2)N(Cc2ccccc2)[C@@H]1c1ccc(NCc2ccccc2)cc1` [TCH-165], in test [3], the “contribution of closed forms in 20 S particles population” value was “induced a strong decrease in contribution of the closed forms”.
